Tests used:
[1] = target: T1, GABA-A alpha1 receptor (alpha 1 subunit together with a beta and a gamma subunit) (Homo sapiens, UniProt P14867+P18507); assay: GABA-A receptor modulation, voltage-sensitive dye fluorescence in transfected eukaryotic cell line (alpha1); assay type: cell-based; conditions: compounds at 3 μM, sub-maximal concentration of GABA (EC20); for activation at 3 µM: read-out: alpha1 % mod (percentage of increase of the fluorescent signal compared to signal without the agent)
T1 construct: expressed in transfected cells
T1 sequence (P14867 28-456): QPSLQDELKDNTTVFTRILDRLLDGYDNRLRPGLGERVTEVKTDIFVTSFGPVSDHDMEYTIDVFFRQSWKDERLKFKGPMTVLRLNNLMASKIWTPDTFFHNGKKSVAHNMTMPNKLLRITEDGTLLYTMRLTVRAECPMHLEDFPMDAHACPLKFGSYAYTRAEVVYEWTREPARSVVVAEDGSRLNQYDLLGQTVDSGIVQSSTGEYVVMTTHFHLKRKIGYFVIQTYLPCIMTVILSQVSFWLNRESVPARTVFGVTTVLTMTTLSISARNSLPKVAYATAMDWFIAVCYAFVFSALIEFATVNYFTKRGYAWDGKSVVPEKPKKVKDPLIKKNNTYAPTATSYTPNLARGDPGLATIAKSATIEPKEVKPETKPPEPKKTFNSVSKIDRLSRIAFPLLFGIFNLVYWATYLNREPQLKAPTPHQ
T1 sequence (P47870 25-512 partner limits assumed): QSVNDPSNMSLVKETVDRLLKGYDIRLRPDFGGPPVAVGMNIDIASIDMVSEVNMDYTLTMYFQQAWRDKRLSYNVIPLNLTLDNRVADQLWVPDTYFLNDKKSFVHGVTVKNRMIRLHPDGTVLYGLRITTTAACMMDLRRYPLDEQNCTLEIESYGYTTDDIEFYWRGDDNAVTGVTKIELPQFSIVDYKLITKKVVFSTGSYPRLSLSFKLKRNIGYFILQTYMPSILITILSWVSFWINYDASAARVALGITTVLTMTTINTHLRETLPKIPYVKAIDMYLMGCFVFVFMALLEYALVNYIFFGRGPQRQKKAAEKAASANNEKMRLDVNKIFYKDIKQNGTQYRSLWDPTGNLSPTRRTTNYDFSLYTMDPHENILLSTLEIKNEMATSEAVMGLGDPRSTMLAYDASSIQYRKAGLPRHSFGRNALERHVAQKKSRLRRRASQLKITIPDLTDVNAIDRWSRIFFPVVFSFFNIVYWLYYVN
T1 sequence (P18507 40-467 limits assumed): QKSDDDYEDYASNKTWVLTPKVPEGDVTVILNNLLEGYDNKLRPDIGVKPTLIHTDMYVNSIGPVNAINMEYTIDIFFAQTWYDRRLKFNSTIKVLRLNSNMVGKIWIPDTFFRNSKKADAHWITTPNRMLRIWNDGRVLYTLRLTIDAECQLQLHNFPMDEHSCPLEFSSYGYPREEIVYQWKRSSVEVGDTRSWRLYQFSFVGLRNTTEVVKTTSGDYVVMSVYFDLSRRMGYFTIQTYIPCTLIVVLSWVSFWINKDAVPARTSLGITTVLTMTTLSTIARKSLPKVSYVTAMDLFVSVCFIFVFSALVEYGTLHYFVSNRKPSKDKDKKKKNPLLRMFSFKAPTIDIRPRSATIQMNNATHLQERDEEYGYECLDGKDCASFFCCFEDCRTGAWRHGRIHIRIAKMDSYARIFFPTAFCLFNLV
From the text: (§1) GABA-A receptor modulators show in functional assays a positive modulation of GABA-induced signals. This modulation can be determined in vitro, e.g., at recombinant GABA-A receptors expressed in a mammalian cell line, e.g. by measurement of GABA-A receptor induced changes of the trans-membrane voltage, when using a voltage-sensitive dye and a fluorescence detection system (Adkins, C. E., Pillai, G. V., Kerby, J., Bonnert, T. P., Haldon, C., Mckernan, R. M., Gonzalez, J. E., Oades, K., Whiting, P. J. & Simpson, P. B. [2001]. alpha4beta3delta GABA-A receptors characterized by fluorescence resonance energy transfer-derived measurements of membrane potential. J. Biol. Chem., 276, 38934-38939). In this assay, a modulator compound is pre-applied at different concentrations ranging from 0.1 nM to 10 μM to cells expressing GABA-A receptors and loaded with the voltage-sensitive dye, before, or at the same time as, a sub-maximal concentration of GABA (in the range of from 0.1 to 10 μM) is applied to the cells. The fluorescent signal is correlated with the degree of GABA-A receptor channel opening. This allows the quantification of effects induced by the modulator in a functional manner. By expression of different GABA-A receptor subunit combinations, the differential efficacy of a modulator at different GABA-A receptor variants can be tested. Other functional assays include the electrophysiological recording of Xenopus oocytes or mammalian cells expressing respective receptor variants. In addition, ion flux detectors can be used to functionally study GABA-A receptors in heterologous expression systems. The affinity of a compound to the GABA-A receptor can be measured in radioligand binding experiments using reference ligands containing a radioactive element, e.g., tritiated flumazenil, and intact cells or membrane preparations of cells expressing GABA-A receptors.
(§2) Activity and selectivity of a GABA-A receptor modulator according to the invention can, e.g., be determined in vitro as follows: A transfected eukaryotic cell line expressing the alpha1, alpha2 or alpha3 subunit of the GABA-A receptor together with a beta and a gamma subunit of the GABA-A receptor is incubated with a voltage-sensitive dye, and the effects of an agonist (typically GABA) or modulator addition are recorded in a fluorimetric plate reader. The opening of the GABA-A receptor channel and the subsequent flux of anions through it changes the trans-membrane voltage of the transfected cells, leading to a change in the fluorescent signal of the voltage-sensitive dye. In the presence of the agent of the invention, a sub-maximal concentration of GABA (e.g. an EC20 or an EC50) added to transfected cells expressing the alpha1, alpha2 or alpha3 subunit of the GABA-A receptor will elicit an at least 50%, preferably an at least 80%, ideally an at least 100%, increase, of the fluorescent signal, compared to the fluorescent signal obtained without the agent of the invention. In this assay, agents of the invention modulate the GABA-induced response at concentration from about 0.1 to about 10′000 nM.

[2] = target: T2, GABA-A alpha2 receptor (alpha 2 subunit together with a beta and a gamma subunit) (Homo sapiens, UniProt P18507+P47869); assay: GABA-A receptor modulation, voltage-sensitive dye fluorescence in transfected eukaryotic cell line (alpha2); assay type: cell-based; conditions: compounds at 3 μM, sub-maximal concentration of GABA (EC20); for activation at 3 µM: read-out: alpha2 % mod (percentage of increase of the fluorescent signal compared to signal without the agent)
T2 construct: expressed in transfected cells
T2 sequence (P47869 29-451): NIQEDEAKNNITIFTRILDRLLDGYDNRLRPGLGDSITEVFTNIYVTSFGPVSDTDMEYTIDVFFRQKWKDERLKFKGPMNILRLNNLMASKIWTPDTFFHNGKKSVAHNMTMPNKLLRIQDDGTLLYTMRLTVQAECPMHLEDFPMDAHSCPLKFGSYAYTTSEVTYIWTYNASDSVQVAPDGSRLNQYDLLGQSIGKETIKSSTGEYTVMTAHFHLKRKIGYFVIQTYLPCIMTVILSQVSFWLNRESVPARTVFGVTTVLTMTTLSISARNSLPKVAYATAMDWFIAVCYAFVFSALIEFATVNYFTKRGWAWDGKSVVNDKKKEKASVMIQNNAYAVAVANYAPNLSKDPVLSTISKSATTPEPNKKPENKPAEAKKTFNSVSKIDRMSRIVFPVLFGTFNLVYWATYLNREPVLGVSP
T2 sequence (P47870 25-512 partner limits assumed): T1 sequence (P47870 25-512 partner limits assumed)
T2 sequence (P18507 40-467 limits assumed): T1 sequence (P18507 40-467 limits assumed)
From the text: as §1, §2

SMILES | activation at 3 µM [1] [%] | activation at 3 µM [2] [%] | alpha1 % mod (percentage of increase of the fluorescent signal compared to signal without the agent) [1] [% mod] | alpha2 % mod (percentage of increase of the fluorescent signal compared to signal without the agent) [2] [% mod]
COc1ccc(-n2nc3c(cnc4ccccc43)c2OCc2ccncc2)cc1 [Example 60, 2-(4-methoxyphenyl)-3-(pyridin-4-ylmethoxy)-2H-pyrazolo[4,3-c]quinoline] | 64 | 177 | – | –
Cc1ccccc1-n1nc2c(cnc3ccccc32)c1OCc1ccccc1Br [Example 36, 3-[(2-bromobenzyl)oxy]-2-(2-methylphenyl)-2H-pyrazolo[4,3-c]quinoline] | 223 | 315 | – | –
COc1ccc(-n2nc3c(cnc4ccccc43)c2OCc2ccc(Cl)cc2)cc1 [Example 89, 3-(4-Chloro-benzyloxy)-2-(4-methoxy-phenyl)-2H-pyrazolo[4,3-c]quinoline] | 23 | 69 | – | –
Clc1ccc(-n2nc3c(cnc4ccccc43)c2OCC2CCCC2)cc1 [Example 91, 2-(4-Chloro-phenyl)-3-cyclopentylmethoxy-2H-pyrazolo[4,3-c]quinoline] | 55 | 84 | – | –
Clc1ccccc1COc1c2cnc3ccccc3c2nn1-c1ccccn1 [Example 34, 3-[(2-chlorobenzypoxy]-2-pyridin-2-y1-2H-pyrazolo[4,3-c]quinoline] | – | – | 13 | 57
COc1ccc(-n2nc3c(cnc4c(F)c(F)c(F)cc43)c2SCc2ccccc2)cc1 [Example 70, 3-(benzylsulfanyl)-6,7,8-trifluoro-2-(4-methoxyphenyl)-2H-pyrazolo[4,3-c]quinoline] | 188 | 349 | – | –
Clc1ccc(-n2nc3c(cnc4ccccc43)c2OCC2CCO2)cc1 (centres unmarked) [Example 98, 2-(4-Chloro-phenyl)-3-(oxetan-2-ylmethoxy)-2H-pyrazolo[4,3-c]quinoline] | 53 | 97 | – | –
Clc1ccc(-n2nc3c(cnc4ccccc43)c2OCC2CC2)cc1 [Example 90, 2-(4-Chloro-phenyl)-3-cyclopropylmethoxy-2H-pyrazolo[4,3-c]quinoline] | 60 | 164 | – | –
Fc1ccccc1COc1c2cnc3ccccc3c2nn1-c1ccccc1 [Example 27, 3-[(2-fluorobenzyl)oxy]-2-phenyl-2H-pyrazolo[4,3-c]quinoline] | 62 | 165 | – | –
Clc1ccc(-n2nc3c(cnc4ccccc43)c2OC2CCCC2)cc1 [Example 92, 2-(4-Chloro-phenyl)-3-cyclopentyloxy-2H-pyrazolo[4,3-c]quinoline] | 27 | 57 | – | –
Clc1ccc(-n2nc3c(cnc4ccc(-n5ccnc5)cc43)c2OCC2CC2)cc1 [Example 96, 2-(4-Chloro-phenyl)-3-cyclopropylmethoxy-8-imidazol-1-yl-2H-pyrazolo[4,3-c]quinoline] | 119 | 162 | – | –
Fc1ccc(-n2nc3c(cnc4ccccc43)c2OCc2ccccc2Cl)cc1 [Example 63, 3-[(2-chlorobenzyl)oxy]-2-(4-fluorophenyl)-2H-pyrazolo[4,3-c]quinoline] | 9 | 60 | – | –
CC(C)(C)n1nc2c(cnc3ccccc32)c1OCc1ccccc1Br [Example 81, 3-[(2-bromobenzyl)oxy]-2-tert-butyl-2H-pyrazolo[4,3-c]quinoline] | 109 | 205 | – | –
Clc1ccccc1COc1c2cnc3ccccc3c2nn1-c1ccc2c(c1)OCO2 [Example 59, 2-(1,3-benzodioxo1-5-y1)-3-[(2-chlorobenzypoxy]-2H-pyrazolo[4,3-c]quinoline] | – | – | −17 | 66
Clc1ccc(-n2nc3c(cnc4ccc(-n5ccnc5)cc43)c2OCCc2ccccc2Cl)cc1 [Example 114, 2-(4-Chloro-phenyl)-3-[2-(2-chloro-phenyl)-ethoxy]-8-imidazol-1-yl-2H-pyrazolo[4,3-c]quinoline] | 108 | 129 | – | –
COc1ccc(-n2nc3c(cnc4ccccc43)c2OCCN2CCOCC2)cc1 [Example 18, 2-(4-methoxyphenyl)-3-(2-morpholin-4-ylethoxy)-2H-pyrazolo[4,3-c]quinoline] | 67 | 196 | – | –
Fc1ccc(-n2nc3c(cnc4ccccc43)c2OCc2ccccc2F)cc1 [Example 28, 3-[(2-fluorobenzyl)oxy]-2-(4-fluorophenyl)-2H-pyrazolo[4,3-c]quinoline] | 34 | 146 | – | –
COc1ccc(-n2nc3c(cnc4ccccc43)c2OCc2ccccc2Cl)cc1 [Example 61, 3-[(2-chlorobenzyl)oxy]-2-(4-methoxyphenyl)-2H-pyrazolo[4,3-c]quinoline] | 52 | 145 | – | –
Fc1ccccc1-n1nc2c(cnc3ccccc32)c1OCCN1CCOCC1 [Example 19, 2-(2-fluorophenyl)-3-(2-morpholin-4-ylethoxy)-2H-pyrazolo[4,3-c]quinoline] | 0 | 72 | – | –

From patent US20110294799A1, “Organic Compounds” (NOVARTIS AG, priority 2007, published 2011)
